pIC50: −log10 of the molar value.
Legend:
[1] = test system: IL-13 induced STAT6 promotor luciferase reporter in U937 monocytes (U937-STAT6-Luc); assay: Cellular interleukin (IL-13) induced JAK-STAT6-luciferase assay (pSTAT6); type: cell-based; settings: Homo sapiens, U-937; IL-13 induced STAT6-luciferase, U937-STAT6-Luc cells
Summary of the method: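 U937 STAT6-luciferase reporter cells in HEPES/HBSS/0.1% BSA buffer, pretreated with serially diluted compounds (10 mM to 0.5 nM DMSO stocks) and stimulated with IL-13. Incubation 4½ h at 37 °C then 30 min at room temperature; SteadyGlo luminescence read.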

[2] = biological target: recombinant JAK2 (amino acids 831-1132) (Homo sapiens (Human), UniProt O60674); assay: Enzyme inhibition studies, JAK2 (5 mM ATP, Caliper); type: biochemical
Sequence of recombinant JAK2 (amino acids 831-1132) (O60674 831-1132): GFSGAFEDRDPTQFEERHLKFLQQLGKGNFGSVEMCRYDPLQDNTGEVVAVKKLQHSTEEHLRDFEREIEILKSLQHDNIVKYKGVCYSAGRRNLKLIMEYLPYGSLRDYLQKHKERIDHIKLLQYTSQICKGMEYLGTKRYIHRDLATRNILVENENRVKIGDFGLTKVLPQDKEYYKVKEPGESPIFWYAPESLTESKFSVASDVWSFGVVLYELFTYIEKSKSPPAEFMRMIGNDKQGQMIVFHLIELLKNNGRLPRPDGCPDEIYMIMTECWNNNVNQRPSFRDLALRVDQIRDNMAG
Summary of the method: (§1)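 N-terminal GST-fused kinase domains from insect cells, run at 5 mM ATP with inhibitor at 30, 3, 0.3, 0.03, 0.003 and 0 μM final.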

[3] = biological target: recombinant JAK3 (amino acids 781-1124) (Homo sapiens (Human), UniProt P52333); assay: Enzyme inhibition studies, JAK3 (5 mM ATP, Caliper); type: biochemical
Sequence of recombinant JAK3 (amino acids 781-1124) (P52333 781-1124): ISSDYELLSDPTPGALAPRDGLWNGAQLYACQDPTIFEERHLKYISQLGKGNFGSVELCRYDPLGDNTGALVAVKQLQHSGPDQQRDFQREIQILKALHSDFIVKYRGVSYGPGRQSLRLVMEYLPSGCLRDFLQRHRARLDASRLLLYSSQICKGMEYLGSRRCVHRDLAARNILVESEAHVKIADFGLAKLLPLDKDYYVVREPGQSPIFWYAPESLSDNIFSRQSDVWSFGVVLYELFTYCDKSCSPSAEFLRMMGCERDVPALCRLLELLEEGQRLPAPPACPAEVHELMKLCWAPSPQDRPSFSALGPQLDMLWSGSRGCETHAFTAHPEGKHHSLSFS
Summary of the method: as §1

[4] = biological target: recombinant JAK1 (amino acids 866-1154) (Homo sapiens (Human), UniProt P23458); assay: Enzyme inhibition studies, JAK1 (5 mM ATP, Caliper); type: biochemical
Sequence of recombinant JAK1 (amino acids 866-1154) (P23458 866-1154): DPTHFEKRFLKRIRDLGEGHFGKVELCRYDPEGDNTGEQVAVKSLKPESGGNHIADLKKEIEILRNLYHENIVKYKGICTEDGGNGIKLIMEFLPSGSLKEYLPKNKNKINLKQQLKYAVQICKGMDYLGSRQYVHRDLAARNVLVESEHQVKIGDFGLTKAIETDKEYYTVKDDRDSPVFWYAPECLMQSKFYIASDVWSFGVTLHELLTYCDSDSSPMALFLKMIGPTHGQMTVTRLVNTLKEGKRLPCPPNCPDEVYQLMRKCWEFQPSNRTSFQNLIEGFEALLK
Summary of the method: as §1

| SMILES | pIC50 [1] | pIC50 [2] | pIC50 [3] | pIC50 [4] |
| --- | --- | --- | --- | --- |
| COC[C@H](C(=O)Nc1cccc2c(-c3nc(Nc4cccc(S(C)(=O)=O)c4F)ncc3F)c[nH]c12)N1CCCN(C)CC1 [Example 45, (R)-N-(3-(5-fluoro-2-((2-fluoro-3-(methylsulfonyl)phenyl)amino)pyrimidin-4-yl)-1H-indol-7-yl)-3-methoxy-2-(4-methyl-1,4-diazepan-1-yl)propanamide] | 7.44 | 6.14 | < 4.52 | > 8.52 |
| Cc1cnc(Nc2cccc(S(C)(=O)=O)c2F)nc1-c1c[nH]c2c(NC(=O)[C@@H](C)N3C[C@H](C)N(C)[C@@H](C)C3)cccc12 [Example 7, (R)-N-(3-(2-((2-fluoro-3-(methylsulfonyl)phenyl)amino)-5-methylpyrimidin-4-yl)-1H-indol-7-yl)-2-((3S,5S)-3,4,5-trimethylpiperazin-1-yl)propanamide] | 7.24 | 4.84 | < 4.52 | 8.18 |
| COC[C@H](C(=O)Nc1cccc2c(-c3nc(Nc4cccc(S(C)(=O)=O)c4F)ncc3C)c[nH]c12)N1C[C@@H](C)N[C@H](C)C1 [Example 29, (R)-2-((3R,5R)-3,5-dimethylpiperazin-1-yl)-N-(3-(2-((2-fluoro-3-(methylsulfonyl)phenyl)amino)-5-methylpyrimidin-4-yl)-1H-indol-7-yl)-3-methoxypropanamide] | 7.40 | 5.92 | < 4.52 | > 8.52 |
| COC[C@H](C(=O)Nc1cccc2c(-c3nc(Nc4cccc(S(C)(=O)=O)c4F)ncc3F)c[nH]c12)N1C[C@@H](C)N[C@H](C)C1 [Example 33, (R)-2-((3R,5R)-3,5-dimethylpiperazin-1-yl)-N-(3-(5-fluoro-2-((2-fluoro-3-(methylsulfonyl)phenyl)amino)pyrimidin-4-yl)-1H-indol-7-yl)-3-methoxypropanamide] | 7.26 | 5.71 | < 4.52 | > 8.52 |
| Cc1cnc(Nc2cccc(S(C)(=O)=O)c2F)nc1-c1c[nH]c2c(NC(=O)[C@H](C)N3CCNCC3)cccc12 [Example 25, (S)-N-(3-(2-((2-fluoro-3-(methylsulfonyl)phenyl)amino)-5-methylpyrimidin-4-yl)-1H-indol-7-yl)-2-(piperazin-1-yl)propanamide] | 7.20 | 5.18 | < 4.52 | 7.64 |
| CC[C@H](C(=O)Nc1cccc2c(-c3nc(Nc4cccc(S(C)(=O)=O)c4F)ncc3F)c[nH]c12)N1C[C@@H](C)N[C@H](C)C1 [Example 31, (R)-2-((3R,5R)-3,5-dimethylpiperazin-1-yl)-N-(3-(5-fluoro-2-((2-fluoro-3-(methylsulfonyl)phenyl)amino)pyrimidin-4-yl)-1H-indol-7-yl)butanamide] | 7.13 | 5.75 | < 4.52 | 8.19 |
| Cc1cnc(Nc2cccc(S(C)(=O)=O)c2F)nc1-c1c[nH]c2c(NC(=O)[C@H](C)N3CCN(C)C[C@@H]3C)cccc12 [Example 59, (S)-2-((S)-2,4-dimethylpiperazin-1-yl)-N-(3-(2-((2-fluoro-3-(methylsulfonyl)phenyl)amino)-5-methylpyrimidin-4-yl)-1H-indol-7-yl)propanamide] | < 5.20 | < 4.52 | < 4.52 | 6.84 |
| COC[C@@H](C(=O)Nc1cccc2c(-c3nc(Nc4cccc(S(C)(=O)=O)c4F)ncc3F)c[nH]c12)N1CCCN(C)CC1 [Example 44, (S)-N-(3-(5-fluoro-2-((2-fluoro-3-(methylsulfonyl)phenyl)amino)pyrimidin-4-yl)-1H-indol-7-yl)-3-methoxy-2-(4-methyl-1,4-diazepan-1-yl)propanamide] | 5.52 | < 4.52 | < 4.52 | 6.02 |
| COC[C@H](C(=O)Nc1cccc2c(-c3nc(Nc4cccc(S(C)(=O)=O)c4F)ncc3F)c[nH]c12)N1C[C@H](C)N(C)[C@@H](C)C1 [Example 41, (R)-N-(3-(5-fluoro-2-((2-fluoro-3-(methylsulfonyl)phenyl)amino)pyrimidin-4-yl)-1H-indol-7-yl)-3-methoxy-2-((3S,5S)-3,4,5-trimethylpiperazin-1-yl)propanamide] | 7.24 | 5.32 | < 4.52 | 8.40 |
| Cc1cnc(Nc2cccc(S(C)(=O)=O)c2F)nc1-c1c[nH]c2c(NC(=O)[C@H](C)N3CCN(C)C[C@H]3C)cccc12 [Example 47, (S)-2-((R)-2,4-dimethylpiperazin-1-yl)-N-(3-(2-((2-fluoro-3-(methylsulfonyl)phenyl)amino)-5-methylpyrimidin-4-yl)-1H-indol-7-yl)propanamide] | 6.21 | < 4.52 | < 4.52 | 6.74 |
| CC[C@@H](C(=O)Nc1cccc2c(-c3nc(Nc4cccc(S(C)(=O)=O)c4F)ncc3C)c[nH]c12)N1CCN(C)CC1C (stereo in doubt) [Example 61, (S)-2-((S)-2,4-dimethylpiperazin-1-yl)-N-(3-(2-((2-fluoro-3-(methylsulfonyl)phenyl)amino)-5-methylpyrimidin-4-yl)-1H-indol-7-yl)butanamide] | 6.79 | < 4.52 | < 4.52 | 7.37 |
| Cc1cnc(Nc2cccc(S(C)(=O)=O)c2F)nc1-c1c[nH]c2c(NC(=O)[C@H](COCc3ccccc3)N3CCN(C)CC3)cccc12 [Example 65, (S)-3-(benzyloxy)-N-(3-(2-((2-fluoro-3-(methylsulfonyl)phenyl)amino)-5-methylpyrimidin-4-yl)-1H-indol-7-yl)-2-(4-methylpiperazin-1-yl)propanamide] | 6.29 | < 4.52 | < 4.52 | 7.14 |
| CC[C@@H](C(=O)Nc1cccc2c(-c3nc(Nc4cccc(S(C)(=O)=O)c4F)ncc3F)c[nH]c12)N1CCCN(C)CC1 [Example 18] | 5.89 | < 4.52 | < 4.52 | 6.39 |
| Cc1cnc(Nc2cccc(S(C)(=O)=O)c2F)nc1-c1c[nH]c2c(NC(=O)[C@H](C)N3CCN(C)CC3)cccc12 [Example 6, (S)-N-(3-(2-((2-fluoro-3-(methylsulfonyl)phenyl)amino)-5-methylpyrimidin-4-yl)-1H-indol-7-yl)-2-(4-methylpiperazin-1-yl)propanamide] | 6.76 | < 4.52 | < 4.52 | 7.24 |
| CC[C@@H](C(=O)Nc1cccc2c(-c3nc(Nc4cccc(S(C)(=O)=O)c4F)ncc3F)c[nH]c12)N1CCN(C)CC1 [Example 39, (S)-N-(3-(5-fluoro-2-((2-fluoro-3-(methylsulfonyl)phenyl)amino)pyrimidin-4-yl)-1H-indol-7-yl)-2-(4-methylpiperazin-1-yl)butanamide] | 6.35 | < 4.52 | < 4.52 | 6.59 |

Reference: patent US10961228B2, “JAK1 selective inhibitors” (AstraZeneca AB, priority 2017, dated 2021)
